≈ marks a conversion by molar mass, not a printed value.
What was measured:
[1] = Ratio of MTD, maximum dose with in 10% body weight loss (ug/Kg) to that of TGI50 was reported; assay type: functional
HeLa [2] = assay: In vitro cytotoxicity against HeLaS3 human uterine cervix carcinoma; assay type: functional, cell-based
Mus musculus = assay: In vivo antitumor activity against colon 26 murine adenocarcinoma in male CDF1 mice and was expressed as 50% tumor growth inhibition.; assay type: functional
HeLa [3] = assay: In vitro cytotoxicity against HeLaS3 human uterine cervix carcinoma.; assay type: functional, cell-based
[4] = Homo sapiens, HeLa, read-out: IC50

| SMILES | Ratio [1] | IC50 (HeLa [2]; hela) [ng/mL] | TGI50 (Mus musculus) [µg/kg] | IC50 (HeLa [2]; [4]) [ng/mL] | IC50 (HeLa [3]) [ng/mL] |
| --- | --- | --- | --- | --- | --- |
| Cc1c[nH]c2c(O)cc3c(c12)[C@H](CCl)CN3C(=O)/C=C/c1ccc(/C=C/C(=O)N2C[C@H](CCl)c3c2cc(O)c2[nH]cc(C)c32)cc1 | 5.5 | 0.0013 (≈ 0.00198 nM) | 1.41 |  |  |
| COC(=O)c1c(C(F)(F)F)[nH]c2c(O)cc3c(c12)[C@H](CCl)CN3C(=O)/C=C/c1ccc(/C=C/C(=O)N2C[C@H](CCl)c3c2cc(O)c2[nH]c(C(F)(F)F)c(C(=O)OC)c32)cc1 | 30.7 | 0.0027 (≈ 0.00307 nM) | 0.254 |  |  |
| Cc1c[nH]c2c(O)cc3c(c12)[C@H](CCl)CN3C(=O)c1cc2cc(NC(=O)Nc3ccc4[nH]c(C(=O)N5C[C@@H](CCl)c6c5cc(O)c5[nH]cc(C)c65)cc4c3)ccc2[nH]1 [BIZELESIN] | 8.4 |  | 3.72 |  |  |
| O=C(/C=C/c1ccc(/C=C/C(=O)N2C[C@H](CCl)c3c2cc(O)c2[nH]c4ccccc4c32)cc1)N1C[C@@H](CCl)c2c1cc(O)c1[nH]c3ccccc3c21 | 8.2 |  | 3.8 | 0.072 (≈ 0.0989 nM) |  |
| COC(=O)c1c(C)[nH]c2c(O)cc3c(c12)[C@H](CCl)CN3C(=O)/C=C/c1ccc(/C=C/C(=O)N2C[C@H](CCl)c3c2cc(O)c2[nH]c(C)c(C(=O)OC)c32)cc1 | 8.8 |  | 0.891 |  | 0.00046 (≈ 0.000596 nM) |
| COC(=O)c1c(C(F)(F)F)[nH]c2c(O)cc3c(c12)[C@H](CCl)CN3C(=O)c1cc2cc(-c3ccc4[nH]c(C(=O)N5C[C@@H](CCl)c6c5cc(O)c5[nH]c(C(F)(F)F)c(C(=O)OC)c65)cc4c3)ccc2[nH]1 | 3.3 | 0.0049 (≈ 0.00499 nM) | 0.3 |  |  |
| COC(=O)c1cc2c3c(cc(O)c2[nH]1)N(C(=O)/C=C/c1ccc(/C=C/C(=O)N2C[C@H](CCl)c4c2cc(O)c2[nH]c(C(=O)OC)cc42)cc1)C[C@H]3CCl |  |  | 100 | 0.023 (≈ 0.0309 nM) |  |
| COC(=O)c1c[nH]c2c(O)cc3c(c12)[C@H](CCl)CN3C(=O)/C=C/c1ccc(/C=C/C(=O)N2C[C@H](CCl)c3c2cc(O)c2[nH]cc(C(=O)OC)c32)cc1 | 10.3 |  | 0.757 |  | 0.00035 (≈ 0.000471 nM) |
